Measured values from patent US10750743B2, “Pyridazinone herbicides” (E.I. DU PONT DE NEMOURS AND COMPANY, priority 2015, dated 2020).

How the values were obtained:
Assay type in all cases: in vivo
Foxtail, Green [1] = experiment: Test A preemergence, directed soil spray, visual injury rating; conditions: 0 is no effect, 100 is complete control
[2] = test system: barnyardgrass (Echinochloa crus-galli); experiment: as above; conditions: 0 is no effect, 100 is complete control
In short: (§1)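 Seeds sown in a loam soil–sand blend received a directed preemergence soil spray of test chemical in a non-phytotoxic solvent mixture with surfactant. Postemergence plants were sprayed at 2 to 10 cm, one- to two-leaf stage. After approximately 10 d in greenhouse, injury was visually rated 0 (no effect) to 100 (complete control) against untreated controls.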

kochia (Kochia scoparia) [3] = experiment: as above; conditions: 0 is no effect, 100 is complete control
In short: as §1

[4] = test system: pigweed (Amaranthus retroflexus); experiment: as above; conditions: 0 is no effect, 100 is complete control
In short: as §1

[5] = test system: ragweed (common ragweed, Ambrosia elatior); experiment: as above; conditions: 0 is no effect, 100 is complete control
In short: as §1

[6] = test system: ryegrass, It. (Italian ryegrass, Lolium multiflorum); experiment: as above; conditions: 0 is no effect, 100 is complete control
In short: as §1

[7] = test system: barnyardgrass (Echinochloa crus-galli); experiment: Test B flooded paddy test, visual rating; conditions: Flood, 250 g ai/ha, applied to paddy water, rated after 13 to 15 d
In short: (§2)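 Plants at the 2-leaf stage were flooded to 3 cm above soil, and test compounds were applied directly into the paddy water, which was held at that depth throughout. After 13 to 15 d in a greenhouse, injury was rated visually against untreated controls on a 0–100 scale (0 no effect, 100 complete control).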

[8] = test system: ducksalad (Heteranthera limosa); experiment: Test B flooded paddy test, visual rating; conditions: Flood, 250 g ai/ha, applied to paddy water, rated after 13 to 15 d
In short: as §2

rice (Oryza sativa) = experiment: Test B flooded paddy test, visual rating; conditions: Flood, 250 g ai/ha, applied to paddy water, rated after 13 to 15 d
In short: as §2

[9] = test system: sedge, umbrella (small-flower umbrella sedge, Cyperus difformis); experiment: Test B flooded paddy test, visual rating; conditions: Flood, 250 g ai/ha, applied to paddy water, rated after 13 to 15 d
In short: as §2

Foxtail, Green [10] = experiment: Test A postemergence application, visual injury rating; conditions: 0 to 100 scale, 0 no effect, 100 complete control
[11] = test system: barnyardgrass (Echinochloa crus-galli); experiment: as above; conditions: 0 to 100 scale, 0 no effect, 100 complete control
In short: as §1

[12] = test system: blackgrass (Alopecurus myosuroides); experiment: as above; conditions: 0 to 100 scale, 0 no effect, 100 complete control
In short: as §1

corn (Zea mays) = experiment: as above; conditions: 0 to 100 scale, 0 no effect, 100 complete control
In short: as §1

[13] = test system: galium (catchweed bedstraw, Galium aparine); experiment: as above; conditions: 0 to 100 scale, 0 no effect, 100 complete control
In short: as §1

kochia (Kochia scoparia) [14] = experiment: as above; conditions: 0 to 100 scale, 0 no effect, 100 complete control
In short: as §1

[15] = test system: pigweed (Amaranthus retroflexus); experiment: as above; conditions: 0 to 100 scale, 0 no effect, 100 complete control
In short: as §1

[16] = test system: ragweed (common ragweed, Ambrosia elatior); experiment: as above; conditions: 0 to 100 scale, 0 no effect, 100 complete control
In short: as §1

[17] = test system: ryegrass, It. (Italian ryegrass, Lolium multiflorum); experiment: as above; conditions: 0 to 100 scale, 0 no effect, 100 complete control
In short: as §1

[18] = test system: wheat (Triticum aestivum); experiment: as above; conditions: 0 to 100 scale, 0 no effect, 100 complete control
In short: as §1

Cc1cc2ccc(C(F)(F)F)c(-c3c(O)c(C)nn(C)c3=O)c2o1 [Compound 49]
Plant response rating (0 to 100 scale), Foxtail, Green (Foxtail, Green [1]; 31 g ai/ha): 0
Plant response rating (0 to 100 scale), Foxtail, Green (Foxtail, Green [1]; 125 g ai/ha): 0
Plant response rating (0 to 100 scale), Barnyardgrass ([2]; 31 g ai/ha): 0
Plant response rating (0 to 100 scale), Barnyardgrass ([2]; 125 g ai/ha): 0
Plant response rating (0 to 100 scale), Kochia (kochia (Kochia scoparia) [3]; 31 g ai/ha): 0
Plant response rating (0 to 100 scale), Kochia (kochia (Kochia scoparia) [3]; 125 g ai/ha): 40
Plant response rating (0 to 100 scale), Pigweed ([4]; 31 g ai/ha): 30
Plant response rating (0 to 100 scale), Pigweed ([4]; 125 g ai/ha): 100
Plant response rating (0 to 100 scale), Ragweed ([5]; 31 g ai/ha): 0
Plant response rating (0 to 100 scale), Ragweed ([5]; 125 g ai/ha): 90
Plant response rating (0 to 100 scale), Ryegrass, It. ([6]; 31 g ai/ha): 20
Plant response rating (0 to 100 scale), Ryegrass, It. ([6]; 125 g ai/ha): 50
Barnyardgrass plant response rating (0 to 100 scale, 0 is no effect, 100 is complete control) [7]: 0
Ducksalad plant response rating (0 to 100 scale, 0 is no effect, 100 is complete control) [8]: 0
Rice plant response rating (0 to 100 scale, 0 is no effect, 100 is complete control) (rice (Oryza sativa)): 0
Sedge, Umbrella plant response rating (0 to 100 scale, 0 is no effect, 100 is complete control) [9]: 0
Foxtail, Green plant response rating (Foxtail, Green [10]; 31 g ai/ha): 20
Foxtail, Green plant response rating (Foxtail, Green [10]; 125 g ai/ha): 30
Barnyardgrass plant response rating ([11]; 31 g ai/ha): 0
Barnyardgrass plant response rating ([11]; 125 g ai/ha): 10
Blackgrass plant response rating ([12]; 31 g ai/ha): 0
Blackgrass plant response rating ([12]; 125 g ai/ha): 0
Corn plant response rating (corn (Zea mays); 31 g ai/ha): 0
Corn plant response rating (corn (Zea mays); 125 g ai/ha): 20
Galium plant response rating ([13]; 31 g ai/ha): 80
Galium plant response rating ([13]; 125 g ai/ha): 90
Kochia plant response rating (kochia (Kochia scoparia) [14]; 31 g ai/ha): 60
Kochia plant response rating (kochia (Kochia scoparia) [14]; 125 g ai/ha): 80
Pigweed plant response rating ([15]; 31 g ai/ha): 90
Pigweed plant response rating ([15]; 125 g ai/ha): 100
Ragweed plant response rating ([16]; 31 g ai/ha): 80
Ragweed plant response rating ([16]; 125 g ai/ha): 90
Ryegrass, It. plant response rating ([17]; 31 g ai/ha): 10
Ryegrass, It. plant response rating ([17]; 125 g ai/ha): 40
Wheat plant response rating ([18]; 31 g ai/ha): 0
Wheat plant response rating ([18]; 125 g ai/ha): 0

Cc1nn(C)c(=O)c(-c2ccc(Cl)c3ccsc23)c1OC(=O)c1ccccc1 [Compound 35]
Plant response rating (0 to 100 scale), Foxtail, Green (Foxtail, Green [1]; 1000 g ai/ha): 0
Plant response rating (0 to 100 scale), Barnyardgrass ([2]; 1000 g ai/ha): 20
Plant response rating (0 to 100 scale), Kochia (kochia (Kochia scoparia) [3]; 1000 g ai/ha): 0
Plant response rating (0 to 100 scale), Pigweed ([4]; 1000 g ai/ha): 0
Plant response rating (0 to 100 scale), Ragweed ([5]; 1000 g ai/ha): 10
Plant response rating (0 to 100 scale), Ryegrass, It. ([6]; 1000 g ai/ha): 80
Foxtail, Green plant response rating (Foxtail, Green [10]; 1000 g ai/ha): 0
Barnyardgrass plant response rating ([11]; 1000 g ai/ha): 20
Blackgrass plant response rating ([12]; 1000 g ai/ha): 30
Corn plant response rating (corn (Zea mays); 1000 g ai/ha): 0
Galium plant response rating ([13]; 1000 g ai/ha): 100
Kochia plant response rating (kochia (Kochia scoparia) [14]; 1000 g ai/ha): 0
Pigweed plant response rating ([15]; 1000 g ai/ha): 0
Ragweed plant response rating ([16]; 1000 g ai/ha): 0
Ryegrass, It. plant response rating ([17]; 1000 g ai/ha): 70
Wheat plant response rating ([18]; 1000 g ai/ha): 0
